According to US20250186439A1, “PYK2 INHIBITION MODULATES IMMUNE CELL FUNCTION” (The Children's Medical Center Corporation, priority 2022, published 2025):
“Also recorded” adds a separate entry of the source.

Legend:
[1] = system: MG6 cells; assay: Phagocytosis of pHrodo Red E. coli BioParticles by MG6 cells (confocal, IMARIS spot analysis); format: cell-based, mouse; conditions: 1000 nM, 24 h
Experimental: FIGS. 5A-5D. Characteristics of Pyk2 inhibition on phagocytotic activity in microglia. FIG. 5A: Immunofluorescent imaging depicting phagocytosis of pHrodo Red E. coli BioParticles by MG6 cells after exposure to Pyk2 inhibitors. MG6 cells were either untreated (left) or treated with 1000 nM Pyk2 inhibitor treatment for 24 hours (right). Immunofluorescent images were obtained via confocal microscopy (×600). MG6 cells were fixed and stained with phalloidin-AlexaFluor488 to visualize actin, and with DAPI to visualize nuclei (encircled). Scale bar is 20 μm. […] FIG. 5B: Immunofluorescent imaging depicting phagocytosis of pHrodo Red E. coli BioParticles by mononucleated and multinucleated MG6 cells after exposure to Pyk2 inhibitors. MG6 cells were treated and imaged as in FIG. 5A. After obtaining three-dimensional images, BioParticles are quantified by a spot analysis using IMARIS software (bottom figures). FIG. 5C: Quantification of spot analysis in FIG. 5B. The output of IMARIS spot analysis was analyzed using one-way ANOVA. […] FIG. 5D: Phagocytotic activity for Aβ in MG6 cells. Immunostaining for Iba1 and Aβ in control and Pyk2 inhibitor treated group. MG6 cells were treated with Pyk2 inhibitor or vehicle for 24 hours and then Hilite-555 labelled Aβ42 was added for 24 hours. Data are representative images of four wells from three independent experiments. A 20 μm scale bar is in the bottom-left corner.
To assess whether or not Pyk2 inhibitor treated, multinuclear MG6 cells were also more phagocytic, treated MG6 cells were subsequently exposed to pHrodo Red E. coli BioParticles (Thermo Fisher Scientific #P35360), a fluorogenic phagocytic substrate derived from Escherichia coli. […] To assess if there was any difference in the phagocytosis of mononucleated and multinucleated MG6 cells, treated cells were assessed via confocal microscopy to generate three-dimensional images of phagocytosed particles, which were then quantified using IMARIS cell imaging software (FIG. 5B).

[2] = system: Lamp1; assay: Immunoblot of Lamp1 (lysosomal activity) in MG6 cells; format: cell-based, mouse; conditions: 1000 nM, under β-amyloid stimulation
Experimental: FIGS. 6A and 6B. Responses of lysosomal function in microglia to β-amyloid stimulation. FIG. 6A: Immunoblots of MG6 cells after treatment with Pyk2 inhibitor and β-amyloid oligomers. Cells were pretreated with 100 ng/mL CSF-1 and 1000 nM Pyk2 inhibitor (PF431396) for 24 hours as indicated, then cell lysates were harvested after treatment with 500 ng/mL β-amyloid for 24 hours (lanes 4-6). MG6 cell lysates were subjected to immunoblotting of phosphorylated Pyk2 (p-Pyk2), Lamp1, Erk, and phosphorylated Erk (p-Erk). Tubulin was used as a loading control. FIG. 6B: Quantification of immunoblotting depicted in FIG. 6A. Ratios of p-Pyk2/Pyk2, Lamp1/Tubulin, and p-Erk/Erk were calculated for MG6 cells pretreated with CSF-1 and a Pyk2 inhibitor, as indicated.
To assess lysosomal activity, Pyk2 inhibitor treated MG6 cells were also exposed to a disease-relevant substrate, β-amyloid protein, which is associated with progressive loss of neuronal function during Alzheimer's disease. After 24 hours of treatment with β-amyloid, control and Pyk2 inhibitor treated MG6 cells were collected, lysed, and immunoblotted in order to determine the relative protein levels of Pyk2, phosphorylated Pyk2, Lamp1, Erk, phosphorylated Erk, and tubulin (FIGS. 6A and 6B). […] However, in the presence of β-amyloid protein, an increase in Lamp1 was observed following treatment with Pyk2 inhibitor.

CN(c1ccccc1CNc1nc(Nc2ccc3c(c2)CC(=O)N3)ncc1C(F)(F)F)S(C)(=O)=O [PF-431396]
phagocytic activity, treated mononuclear and multinuclear microglia combined vs controls [1]: significantly higher | phagocytosis of pHrodo Red E. coli BioParticles, mononucleated treated cells vs control ([1]; listed as Pyk2 inhibitor): no significant difference | phagocytosis of pHrodo Red E. coli BioParticles, multinucleated treated cells vs control/mononucleated ([1]; listed as Pyk2 inhibitor): statistically significant increase; also recorded: significantly higher | Lamp1 (lysosomal activity) [2]: increased | Lamp1 (lysosomal activity) ([2]; listed as Pyk2 inhibitor): increase
